The assay concerns the target T1, CFTR channel in human colonic T84 cells (Homo sapiens, UniProt P13569).
T1 construct: results in the phosphorylation and opening of CFTR anion channels; host or cells: human colonic T84 cells
Description: T84 assay (FLIPR membrane potential dye, forskolin/IBMX-stimulated CFTR). In kind it is cell-based. Particulars: average of at least 2 runs unless annotated n = 1. Here is the method:
(§1) For example, Human colonic T84 cells can be acquired from the European Collection of Cell Cultures (ECACC) and grown in standard culture conditions as described by the supplier. On the day before assay 25,000 T84 cells per well are plated into standard black walled, clear bottom 384-well assay plates in standard growth medium consisting of DMEM:F12 with 10% FBS and incubated overnight. On the day of the assay the plates are washed using a standard assay buffer (HBSS with 10 mM Hepes) and incubated for 15 minutes in serum free cell culture medium before the addition of a commercially available membrane potential sensitive fluorescent dye (FLIPR Red membrane potential dye, Molecular Devices Corporation). T84 cells are incubated with the FLIPR Red membrane potential dye for 45 minutes in the presence and absence of test compound before being transferred to a commercially available fluorescence imaging plate reader (FLIPR384, Molecular Devices Corporation). Fluorescence levels are monitored continuously every second for 150 seconds; after an initial 10 second baseline, CFTR channel activity is stimulated through the addition of 10 μM forskolin in the presence of 100 μM of the phosphodiesterase inhibitor iso-butyl-methylxanthine (IBMX). Addition of the forskolin leads to the activation of intracellular adenylyl cylase 1, elevating cAMP levels and results in the phosphorylation and opening of CFTR anion channels. CFTR channel opening causes chloride ion efflux and subsequent depolarization of the cells, which is measured by an increase in fluorescence. CFTR inhibitor compounds prevent cell depolarization and the associated increase in fluorescence.
as §1, with “Human colonic” for “For example, Human colonic”, “T84 cells are acquired from” for “T84 cells can be acquired from”, “(ECACC) and are grown in” for “(ECACC) and grown in”
T1 sequence (P13569 whole entry): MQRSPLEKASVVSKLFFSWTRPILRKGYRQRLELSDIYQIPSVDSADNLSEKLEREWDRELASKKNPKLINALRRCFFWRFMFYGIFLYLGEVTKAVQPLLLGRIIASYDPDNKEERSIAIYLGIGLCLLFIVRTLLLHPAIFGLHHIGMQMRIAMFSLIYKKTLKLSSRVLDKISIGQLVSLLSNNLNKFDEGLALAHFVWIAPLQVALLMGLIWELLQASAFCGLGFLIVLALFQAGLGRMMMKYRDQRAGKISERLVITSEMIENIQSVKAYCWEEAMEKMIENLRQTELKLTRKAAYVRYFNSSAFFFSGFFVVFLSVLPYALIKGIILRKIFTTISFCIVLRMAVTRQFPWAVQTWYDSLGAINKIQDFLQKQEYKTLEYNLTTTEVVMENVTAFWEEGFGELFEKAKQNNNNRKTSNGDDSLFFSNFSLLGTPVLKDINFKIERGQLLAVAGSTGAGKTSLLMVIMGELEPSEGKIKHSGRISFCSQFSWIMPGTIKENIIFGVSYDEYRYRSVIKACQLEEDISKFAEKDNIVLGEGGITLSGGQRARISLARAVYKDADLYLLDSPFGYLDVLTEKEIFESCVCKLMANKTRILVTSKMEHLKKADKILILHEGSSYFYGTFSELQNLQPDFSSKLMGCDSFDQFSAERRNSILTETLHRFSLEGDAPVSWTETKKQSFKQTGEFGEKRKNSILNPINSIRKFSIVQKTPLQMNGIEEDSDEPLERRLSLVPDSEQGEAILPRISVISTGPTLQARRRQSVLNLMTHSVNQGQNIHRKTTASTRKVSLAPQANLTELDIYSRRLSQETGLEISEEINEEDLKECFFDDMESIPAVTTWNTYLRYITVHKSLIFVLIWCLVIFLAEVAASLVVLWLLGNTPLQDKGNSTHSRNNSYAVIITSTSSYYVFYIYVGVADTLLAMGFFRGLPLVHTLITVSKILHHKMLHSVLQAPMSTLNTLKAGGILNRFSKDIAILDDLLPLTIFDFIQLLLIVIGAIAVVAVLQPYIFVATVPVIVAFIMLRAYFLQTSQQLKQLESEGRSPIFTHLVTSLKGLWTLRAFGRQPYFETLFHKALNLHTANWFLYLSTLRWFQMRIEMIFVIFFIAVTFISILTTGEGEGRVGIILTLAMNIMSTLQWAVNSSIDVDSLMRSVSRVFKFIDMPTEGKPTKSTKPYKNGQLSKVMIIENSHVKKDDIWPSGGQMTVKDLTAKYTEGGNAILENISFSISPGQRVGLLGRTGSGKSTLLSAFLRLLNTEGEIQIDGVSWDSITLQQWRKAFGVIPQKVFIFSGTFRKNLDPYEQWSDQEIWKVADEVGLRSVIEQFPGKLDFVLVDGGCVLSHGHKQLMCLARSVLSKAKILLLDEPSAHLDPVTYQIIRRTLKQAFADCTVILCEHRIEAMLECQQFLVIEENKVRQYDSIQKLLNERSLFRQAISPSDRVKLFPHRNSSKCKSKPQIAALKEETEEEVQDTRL
Compound `Cc1cc(Cl)ccc1OCc1ncc(-c2cc(Br)c(O)c(Br)c2)nn1` [Compound 39, 2,6-dibromo-4-(3-((4-chloro-2-methylphenoxy)methyl)-1,2,4-triazin-6-yl)phenol] returned an IC50 of 10.9 µM.
The same measure for `Cc1cc(Cl)ccc1OCc1ncc(-c2cc(Cl)c(O)c(Cl)c2)nn1` [Compound 40, 2,6-dichloro-4-(3-((4-chloro-2-methylphenoxy)methyl)-1,2,4-triazin-6-yl)phenol]: 10.5 µM.
`Cc1ccc(OCc2ncc(-c3cc(Cl)c(O)c(Cl)c3)nn2)c2c1CCC2` [Compound 41, 2,6-dichloro-4-(3-((7-methyl-2,3-dihydro-1H-inden-4-yloxy)methyl)-1,2,4-triazin-6-yl)phenol] registered an IC50 of 10.6 µM.
The same measure for `Oc1c(Br)cc(-c2cnc(COc3ccc(Cl)cc3Cl)nn2)cc1Br` [Compound 42, 2,6-dibromo-4-(3-((2,4-dichlorophenoxy)methyl)-1,2,4-triazin-6-yl)phenol]: 11 µM.
As for `Oc1c(Br)cc(-c2cnc(COc3cc(Cl)ccc3Cl)nn2)cc1Br` [Compound 43, 2,6-dibromo-4-(3-((2,5-dichlorophenoxy)methyl)-1,2,4-triazin-6-yl)phenol], the figure is 11.1 µM.
The same measure for `C=CCc1ccccc1OCc1ncc(-c2cc(Br)c(O)c(Br)c2)nn1` [Compound 44, 4-(3-((2-allylphenoxy)methyl)-1,2,4-triazin-6-yl)-2,6-dibromophenol]: 12.7 µM; for `Cc1ccc(OCc2ncc(-c3cc(Br)c(O)c(Br)c3)nn2)c2c1CCC2` [Compound 45, 2,6-dibromo-4-(3-((7-methyl-2,3-dihydro-1H-inden-4-yloxy)methyl)-1,2,4-triazin-6-yl)phenol]: 14.1 µM.
`Cc1cc(Br)c(OCc2ncc(-c3cc(Br)c(O)c(Br)c3)nn2)c2c1CCC2` [Compound 46, 2,6-dibromo-4-(3-((5-bromo-7-methyl-2,3-dihydro-1H-inden-4-yloxy)methyl)-1,2,4-triazin-6-yl)phenol] returned an IC50 of 14.3 µM.
Regarding `Cc1cc(OCc2ncc(-c3cc(Br)c(O)c(Br)c3)nn2)cc(C)c1Cl` [Compound 47, 2,6-dibromo-4-(3-((4-chloro-3,5-dimethylphenoxy)methyl)-1,2,4-triazin-6-yl)phenol], the midpoint of inhibition, the IC50, lay at 14.7 µM. The IC50 values of the last two compounds are within 1.5-fold of each other.
Take `Oc1c(Br)cc(-c2cnc(COc3ccc4c(c3)CCC4)nn2)cc1Br` [Compound 48, 2,6-dibromo-4-(3-((2,3-dihydro-1H-inden-5-yloxy)methyl)-1,2,4-triazin-6-yl)phenol]: the IC50 amounted to 14.8 µM.
As for `Oc1c(Br)cc(-c2cnc(COc3ccc(Br)cc3)nn2)cc1Br` [Compound 49, 2,6-dibromo-4-(3-((4-bromophenoxy)methyl)-1,2,4-triazin-6-yl)phenol], the figure is 15.3 µM; as for `CC1(C)Cc2cccc(OCc3ncc(-c4cc(Cl)c(O)c(Cl)c4)nn3)c2O1` [Compound 50, 2,6-dichloro-4-(3-((2,2-dimethyl-2,3-dihydrobenzofuran-7-yloxy)methyl)-1,2,4-triazin-6-yl)phenol], 15.4 µM.
The compound `Oc1c(Br)cc(-c2cnc(COc3ccc(C4SCCS4)cc3)nn2)cc1Br` [Compound 51, 4-(3-((4-(1,3-dithiolan-2-yl)phenoxy)methyl)-1,2,4-triazin-6-yl)-2,6-dibromophenol] returned an IC50 of 18.8 µM. This IC50 and that of the compound before are within 1.5-fold of each other.
Consider `Cc1ccc(C)c(OCc2ncc(-c3cc(Br)c(O)c(Br)c3)nn2)c1` [Compound 52, 2,6-dibromo-4-(3-((2,5-dimethylphenoxy)methyl)-1,2,4-triazin-6-yl)phenol], for which the IC50 worked out at 19.8 µM.
In the case of `Cc1ccc(C(C)C)cc1OCc1ncc(-c2cc(Br)c(O)c(Br)c2)nn1` [Compound 53, 2,6-dibromo-4-(3-((5-isopropyl-2-methylphenoxy)methyl)-1,2,4-triazin-6-yl)phenol], the half-inhibitory concentration (IC50) was 20.1 µM. This IC50 and that of the compound before are within 1.5-fold of each other.
Take `Cc1cc(OCc2ncc(-c3cc(Br)c(O)c(Br)c3)nn2)cc(C)c1Br` [Compound 54, 2,6-dibromo-4-(3-((4-bromo-3,5-dimethylphenoxy)methyl)-1,2,4-triazin-6-yl)phenol]: the IC50 came out at 22 µM. The IC50 values of the last two compounds are within 1.5-fold of each other.

By IC50 is commonly meant the concentration that gives 50% inhibition. High values mean a need for much substance, low ones inhibition by little substance.

Source of the values: US20090264433A1, “Compounds, Compositions and Methods Comprising Triazine Derivatives” (Institute for OneWorld Health, priority 2008, published 2009).
